Data published in PMC11284790, “Targeting Myeloperoxidase Ameliorates Gouty Arthritis: A Virtual Screening Success Story” (Journal of Medicinal Chemistry, 2024).
Where two headings read alike, the source gives them in different places.

Tests used:
dHL-60 cells = test: Cellular production of HOCl, PMA-activated dHL-60 cells; assay type: cell-based, human; settings: 20 μM compound, 100 nM PMA, 1 h
Description: Human promyelocytic leukemic cells (HL-60) (BCRJ, RJ, Brazil) were cultivated in RPMI with fetal bovine serum (10%), penicillin (62 μg/mL), and streptomycin (100 μg/mL) at 37 °C in 5% CO2 atmosphere. HL-60 cells were differentiated to neutrophil-like (dHL-60) by DMSO (1.25%) during 4 days.[25]
(§1) Measurement of HOCl production by 1 × 10^6 dHL-60 or neutrophils was carried out in PBS (10 mM Na2HPO4, 2 mM KH2PO4, 0.5 mM MgCl2, 1 mM CaCl2, 140 mM NaCl, 5.5 mM dextrose, 100 μM diethylenetriaminepentaacetic acid, 5 mM taurine) in the presence of the compounds (20 μM in 0.3% DMSO) or 0.3% DMSO (control). Cells were activated with phorbol myristate acetate (100 nM) at 37 °C for 1 h. After incubation, cells were centrifuged at 1400 rpm for 10 min, and the supernatant was diluted threefold. Finally, 240 μL of this supernatant was added to 60 μL acetate buffer (400 mM, pH 5.4) containing NaI (100 μM) and TMB (2 mM in DMFO 10%). Taurine chloramine was quantified by TMB oxidation at 655 nm.[33] Inhibition of HOCl production was calculated as the percentage of the control (vehicle).

[1] = system: human peripheral blood neutrophils; test: Cellular production of HOCl, PMA-activated peripheral blood neutrophils; assay type: cell-based; settings: 20 μM compound, 100 nM PMA, 1 h
Description: Human neutrophils were obtained from healthy individuals as previously described.[24] The experiments were approved by the local ethics committee (CEPSH-ICB 1435/18).
as §1

MSU-induced paw edema [2] = test: MSU-induced paw edema, intraperitoneal treatment; assay type: in vivo; settings: for effect on paw edema over time: i.p. 30 min before MSU, mefenamic acid 30 mg/kg, RL6 3, 10, 30, RL7 0.3, 3, 30, ZINC9089086 3, 10, 30 mg/kg, 6 h
Description: MSU-induced edema was performed as previously described.[22] The compounds were prepared by dilution in a solution containing 0.5% Tween 80 and 5% DMSO and then resuspended in PBS prior to administration. The animals were treated intraperitoneally (i.p.) with the following substances: vehicle (VEH: 5% DMSO; 0.5% Tween 80 in PBS), mefenamic acid (a nonsteroidal anti-inflammatory drug at a dosage of 30 mg/kg), RL6 (at doses of 3, 10, and 30 mg/kg), RL7 (at doses of 0.3, 3, and 30 mg/kg), or ZINC9089086 (at doses of 3, 10, and 30 mg/kg).[31] After 30 min, the mice were anesthetized using inhaled isoflurane (2% v/v in O2). A hypodermic syringe with a 31-gauge needle (BD, Franklin Lakes, NJ, USA) was used to administer the vehicle (VEH: PBS, 30 μL) or MSU (1.5 mg/30 μL) via the intraplantar route (i.pl.), into the right hind paw (Figure 9).
(§2) Paw volume (mL) was measured at various time points, including before injection (baseline, B), […] 1, 2, 3, 4, 5, and 6 h following MSU injection using a plethysmometer (Ugo Basile, Comerio, Italy) (Figure 7). For this, the injected hind paw was immersed into the dipping solution (6 mM NaCl diluted in distilled water and added with 2 mL/L of a wetting compound provided by the manufacturer) until the ankle. The extent of edema was quantified as a change in paw volume (Δ mL) by subtracting the basal paw volume from the volume of the paw measured at each time point. To evaluate the antiedematogenic effect of orally administered MPO inhibitors (p.o.), the animals were fasted for 1 h and then treated with equimolar doses of the following substances: vehicle (VEH: 5% DMSO; 0.5% tween 80 in PBS), mefenamic acid (30 mg/kg), RL 6 (33 mg/kg), RL 7 (54 mg/kg), RL 21 (30 mg/kg), or ZINC9089086 (34 mg/kg). After 1 h, the anesthetized mice (2% isoflurane, v/v in O2) received either the vehicle (PBS, 30 μL, i.pl.) or 1.5 mg/30 μL MSU (i.pl.). The paw volume was evaluated at the same time points as previously described. The percentage of edema inhibition by the compounds was calculated discounting the paw volume of mice that received oral or intraperitoneal vehicle and PBS intraplantar (VEH + VEH).

MSU-induced paw edema [3] = test: MSU-induced paw edema, oral treatment; assay type: in vivo, male C57BL/6 mice
Description: as §2

IL-1β = test: Paw tissue IL-1β level after MSU (ELISA); assay type: in vivo, male C57BL/6 mice; settings: intraperitoneal pretreatment (RL6 30 mg/kg), tissue collected at 6 h
Description: (§3) The remaining part of the homogenate was treated with a solution of protease/phosphatase inhibitors (1 mM phenylmethylsulfonyl fluoride, 10 μg/mL leupeptin, and 10 μg/mL trypsin inhibitor) and centrifuged at 10,000g (10 min at 4 °C). The obtained supernatants were subjected to 1:2 dilution in PBS and subsequently used for the assessment of IL-1β and IL-6 using murine enzyme-linked immunosorbent assay kits, specifically a sandwich ELISA technique, following manufacturer’s instructions (BioLegend, CA, USA). The protein content within the samples was determined by using the Bradford method (1976). The results were quantified and expressed in pg/mg of protein (Bio-Rad, Hercules, CA, USA).[76]

IL-6 = test: Paw tissue IL-6 level after MSU (ELISA); assay type: in vivo, male C57BL/6 mice; settings: intraperitoneal pretreatment (RL6 30 mg/kg), tissue collected at 6 h
Description: as §3

Human leukocyte MPO = Human leukocyte MPO (Homo sapiens, UniProt P05164); test: MPO chlorinating activity assay (taurine chloramine/TMB); assay type: biochemical; parameters: Human leukocyte MPO (EC 1.7.1.11) was purchased from Planta Natural Products; purchased Planta Natural Products (Vienna, Austria); host or cells: human leukocytes; settings: for IC50: pH 7.4
Human leukocyte MPO, sequence (P05164 279-745 limits assumed): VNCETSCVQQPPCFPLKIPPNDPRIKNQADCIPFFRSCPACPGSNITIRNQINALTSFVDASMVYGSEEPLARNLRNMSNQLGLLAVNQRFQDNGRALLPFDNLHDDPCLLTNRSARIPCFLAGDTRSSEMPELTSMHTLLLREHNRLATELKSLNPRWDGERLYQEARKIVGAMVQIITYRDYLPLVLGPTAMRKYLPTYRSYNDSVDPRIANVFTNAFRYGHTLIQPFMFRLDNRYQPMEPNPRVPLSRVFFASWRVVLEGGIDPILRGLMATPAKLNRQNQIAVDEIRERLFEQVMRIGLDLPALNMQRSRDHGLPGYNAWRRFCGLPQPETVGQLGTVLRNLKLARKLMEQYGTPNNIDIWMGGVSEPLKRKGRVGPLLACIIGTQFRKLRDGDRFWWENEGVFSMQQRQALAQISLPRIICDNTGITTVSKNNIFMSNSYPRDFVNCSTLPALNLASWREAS
Human leukocyte MPO, sequence (P05164 165-278 limits assumed): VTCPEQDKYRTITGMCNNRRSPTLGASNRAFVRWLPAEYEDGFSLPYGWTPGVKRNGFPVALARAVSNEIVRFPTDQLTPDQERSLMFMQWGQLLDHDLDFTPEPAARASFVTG
Description: Chlorinating activity was carried out in phosphate buffer (20 mM, pH 7.4). Compounds (20 μM) were dissolved in 0.03% DMSO, MPO (10 nM), diethylenetriaminepentaacetic acid (100 μM), cetyltrimethylammonium chloride (0.03%), NaCl (140 mM), and taurine (5 mM).[31] This mixture was incubated at 37 °C for 15 min before adding 40 μM hydrogen peroxide. The reaction ran for 8 min and was then stopped by catalase (20 μg/mL). Oxidation of TMB (2 mM) (3,3,5,5-tetramethylbenzidine) by taurine chloroamine catalyzed by iodide (100 μM) was quantified at 650 nm.[33] Results were expressed as a percentage of the control (vehicle). IC50 was calculated by nonlinear regression using the Hill equation present in GraphPad Prism 5 software.

[4] = 20 μM compound, 10 nM MPO, 140 mM NaCl, 5 mM taurine, 40 μM H2O2, pH 7.4, read-out: % Inhibition (at 20 μM) Chlorinating
[5] = supplementary csv copy of Table 1, read-out: % Inhibition (Chlorinating)

Row | Compound | inhibition of HOCl production in dHL-60 cells (dHL-60 cells) | inhibition of HOCl production in peripheral blood neutrophils [1] | reduction of paw edema (time-dependent AUC) vs VEH + MSU (MSU-induced paw edema [2]; 10 mg/kg i.p.) [%] | reduction of paw edema (time-dependent AUC) vs VEH + MSU (MSU-induced paw edema [2]; 30 mg/kg i.p.) [%] | acute toxicity observed in mice (MSU-induced paw edema [2]; during the in vivo tests) | effect on paw edema over time (MSU-induced paw edema [2]) | inhibition of edema vs VEH + MSU (MSU-induced paw edema [3]; 33 mg/kg po) [%] | decrease in IL-1β levels in hind paw tissue (IL-1β) | effect on IL-6 levels in hind paw tissue (IL-6) | IC50 (Human leukocyte MPO; 10 nM MPO, 140 mM NaCl) [nM] | inhibition at 20 µM (Human leukocyte MPO; [4]) [%] | chlorinating/peroxidatic activity inhibition ratio (Human leukocyte MPO; ratio of % inhibition at 20 μM, ~1 indicates true enzyme inhibitor) | inhibition at 20 µM (Human leukocyte MPO; [5]) [%] | reduction of paw edema (time-dependent AUC) vs VEH + MSU (MSU-induced paw edema [2]; 3 mg/kg i.p.) [%] | inhibition of edema vs VEH + MSU (MSU-induced paw edema [3]; 54 mg/kg po) [%] | % Inhibition (at 20 μM) Chlorinating (Human leukocyte MPO; 20 μM compound, 10 nM MPO, 140 mM NaCl, 5 mM taurine, 40 μM H2O2, pH 7.4)
1 | Nc1cc2c3c(cccc3c1)C(=O)N(N)C2=O [RL6] | significantly inhibited | significantly inhibited | 80.4 | 83.2 | no sign of acute toxicity | significantly prevented paw edema | 57.0 | 48.3% | no significant impact | 270 | 86.5 ± 15.3 | ~1 | 86.5 ± 15.3 | – | – | –
2 | CN1CCc2nc3sc(C(=O)Nc4cccc(C#N)c4)c(N)c3cc2C1 [RL7] | significantly inhibited | significantly inhibited | – | 90.2 | – | inhibited paw edema at all of the tested doses | – | unable to decrease | unable to decrease | 560 | 84.9 ± 17 | – | 84.9 ± 17 | 82.8 | 74.3 | active against chlorinating activity only
